# According to article doi:10.1101/2024.12.09.627564, “Cannabinoid inhibition of mechanosensitive K^+ channels” (bioRxiv, 2024):
# Biological target: T1, hsTRAAK (Homo sapiens, UniProt Q9NYG8)
# T1 construct: expressed in transfected cells; host or cells: HEK293T
# T1 sequence (Q9NYG8 1-393): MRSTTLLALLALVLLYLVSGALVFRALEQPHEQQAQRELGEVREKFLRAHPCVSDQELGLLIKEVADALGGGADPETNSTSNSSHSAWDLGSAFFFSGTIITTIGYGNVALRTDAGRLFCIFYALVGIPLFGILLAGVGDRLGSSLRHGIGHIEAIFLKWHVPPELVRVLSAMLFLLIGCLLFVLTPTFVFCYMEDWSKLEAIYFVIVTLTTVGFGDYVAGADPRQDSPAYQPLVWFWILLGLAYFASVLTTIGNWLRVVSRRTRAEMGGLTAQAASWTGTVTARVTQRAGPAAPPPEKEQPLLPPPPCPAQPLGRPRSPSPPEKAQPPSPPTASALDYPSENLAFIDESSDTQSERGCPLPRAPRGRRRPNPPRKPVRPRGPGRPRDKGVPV
# Assay: Whole-cell recordings of TRAAK in cultured HEK293T cells, extracellular CBD
# Type: cell-based
# Settings: 1 and 10 μM CBD, 0 mV
# Experimental: For patch clamp recording from cultured cells, drTREK-1 or hsTRAAK genes were cloned into a modified pCEH vector to generate C-terminally EGFP-tagged constructs. HEK293T were cultured in DMEM (Gibco, Thermo Fisher Scientific) with 10% FBS and 100 U ml−1 penicillin and 100 μg ml−1 streptomycin. Trypsinized cells were deposited on 12-mm glass coverslips in a six-well dish one to two days before transfection. For transfection, drTREK-1 or hsTRAAK plasmids were mixed with FuGENE 6 in OptiMEM at a 1:3 ratio with 1 μg DNA per well per construct and applied to cells in growth medium with antibiotics. Patching was conducted from 24 to 60 h post-transfection. Coverslips were placed in a perfusion chamber at room temperature in isotonic bath solution: 135 mM NaCl, 15 mM KCl, 1 mM CaCl2, 1 mM MgCl2, 10 mM HEPES, adjusted to a final pH of 7.5 with NaOH. Cells were chosen by a combination of the presence GFP fluorescence and cell morphology consistent with healthy interphase cells. […]
# Patches were evaluated with voltage-step protocols to confirm TRAAK expression and minimal non-specific leak based on reversal potential. Currents were recorded using an Axopatch 200B amplifier (Molecular Devices) at a bandwidth of 1 kHz and digitized with an Digidata 1550B (Molecular Devices) at 100–500 kHz using pClamp10.7 software. […] Data were analyzed using Clampfit 10.7, Excel, and Graphpad Prism software. […]
smiles,measurement,value
"C=C(C)[C@@H]1CCC(C)=C[C@H]1c1c(O)cc(CCCCC)cc1O [CBD, Cannabidiol]",inhibition of TRAAK by extracellular CBD,strongly inhibited
